Experimental findings from PubChem BioAssay (NCI) are described below.

Test systems include K-562 leukemia; MALME-3M melanoma; NCI-H522 lung; SF-295 CNS; MDA-MB-231 breast; HS 578T breast; UACC-62 melanoma; IGROV1 ovarian; RPMI-8226 leukemia; SR leukemia.
What all share (assay): NCI-60 cell line screen, 48 h

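48-hour exposure; five concentrations; linearly interpolated endpoints. Here, GI50 denotes the concentration required for 50% inhibition of growth. TGI: concentration producing complete growth inhibition.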

With `COC(c1ccsc1)C(C#N)(C#N)N=Cc1ccsc1` (stereo unspecified), the TGI in the test on K-562 leukemia came to 49.3 µM; in the test on MALME-3M melanoma, 29.8 µM; in the test on NCI-H522 lung, 21.3 µM; in the test with SF-295 CNS, 34.9 µM; with MDA-MB-231 breast, 21.3 µM; in the test on HS 578T breast, 61.7 µM. Also, the TGI in the test on UACC-62 melanoma came out at 28.7 µM; in the test with IGROV1 ovarian, 52 µM.

For the molecule `C(=N\Nc1ncc(-c2cc3cc4c(cc3o2)OCO4)s1)/c1c[nH]c2ccccc12`, the GI50 is 0.382 µM in the test with K-562 leukemia; 1.55 µM with RPMI-8226 leukemia; 1.4 µM with MALME-3M melanoma; 1.82 µM in the test with SF-295 CNS; 2.02 µM in the test on HS 578T breast; 1.75 µM in the test with UACC-62 melanoma. For the same molecule, the GI50 in the test on SR leukemia is 0.912 µM. The TGI is above 100 µM in the test with K-562 leukemia; above 100 µM with RPMI-8226 leukemia; 4.02 µM with MALME-3M melanoma; 4.31 µM with SF-295 CNS; 6.02 µM in the test on HS 578T breast; 3.72 µM with UACC-62 melanoma. The same molecule yielded a TGI with SR leukemia above 100 µM.

Turning to `COc1c(-c2cc(C)c(Cl)c(=O)[nH]2)c(O)c(OC)c2occc12`, the TGI in the test on K-562 leukemia, in the test with RPMI-8226 leukemia, with MALME-3M melanoma, with NCI-H522 lung, with SF-295 CNS and in the test with MDA-MB-231 breast was above 100 µM throughout. The TGI in the test with UACC-62 melanoma, in the test on IGROV1 ovarian and with SR leukemia was above 100 µM in each case.

For `O=C1C=Cc2c(Cl)sc(Cl)c21`, the TGI with K-562 leukemia is 3.21 µM; with RPMI-8226 leukemia it was 4.02 µM; with SF-295 CNS, 27.1 µM; in the test with MDA-MB-231 breast, above 100 µM; in the test on UACC-62 melanoma, 8.64 µM; with IGROV1 ovarian, 3.09 µM.

For `Cc1cn(C2CC(O)C(CO)C2C)c(=O)[nH]c1=O` (stereo unspecified), the TGI with K-562 leukemia, in the test on MALME-3M melanoma, in the test on NCI-H522 lung, with SF-295 CNS, with UACC-62 melanoma and with IGROV1 ovarian was above 100 µM throughout.

`CC(=O)Nc1ccc(S(=O)(=O)Nc2nnc(S(N)(=O)=O)s2)cc1`: the TGI in the test on RPMI-8226 leukemia, in the test with MALME-3M melanoma, in the test with NCI-H522 lung, with SF-295 CNS, with MDA-MB-231 breast and in the test on UACC-62 melanoma was above 100 µM in each case. The TGI in the test on SR leukemia is above 100 µM.

`COc1ccc2c(c1)OCC1(O)Cc3ccccc3OC21` (stereo unspecified): the TGI in the test with K-562 leukemia, with RPMI-8226 leukemia, with MALME-3M melanoma, with NCI-H522 lung, with SF-295 CNS and in the test with MDA-MB-231 breast was above 100 µM in each case. The TGI with UACC-62 melanoma, with IGROV1 ovarian and in the test on SR leukemia was above 100 µM in each case.

For the molecule `C=CCOc1ccc(C2c3c([nH][nH]c3=O)CC(O)(OCC)C2C(=O)OCC)cc1OC` (stereo unspecified), the TGI in the test with RPMI-8226 leukemia, in the test with MALME-3M melanoma, in the test with NCI-H522 lung, in the test with SF-295 CNS, in the test with MDA-MB-231 breast and with HS 578T breast was above 100 µM each time. The same molecule showed a TGI with IGROV1 ovarian above 100 µM.

With `CC/C(Cl)=N\OC(=O)Nc1ccc(OC)cc1`, the TGI with K-562 leukemia is above 100 µM; with RPMI-8226 leukemia, 5.59 µM; with MALME-3M melanoma it was 10.7 µM; in the test with NCI-H522 lung, 2.18 µM; with SF-295 CNS, 31.1 µM; in the test on MDA-MB-231 breast, 17.3 µM. The TGI in the test with HS 578T breast was found to be 52 µM; in the test with UACC-62 melanoma, 24.6 µM; with IGROV1 ovarian it was 17.5 µM.

Take `C=Nc1ccc([N+](=O)[O-])cc1`: the TGI with K-562 leukemia is above 60.5 µM; in the test on RPMI-8226 leukemia, above 31.6 µM; in the test on MALME-3M melanoma, above 100 µM; with NCI-H522 lung, above 100 µM; with SF-295 CNS, above 100 µM; in the test with UACC-62 melanoma it was above 100 µM. Moreover, the TGI in the test on IGROV1 ovarian is above 100 µM; with SR leukemia, above 80.1 µM.

As to `O=S(=O)(c1ccccc1)n1c(C(O)c2ccncc2)cc2ccccc21` (stereo unspecified), the TGI was above 100 µM in the test on K-562 leukemia; above 100 µM in the test with RPMI-8226 leukemia; above 100 µM with SF-295 CNS; above 100 µM in the test with MDA-MB-231 breast; 98.9 µM with UACC-62 melanoma; above 100 µM in the test with IGROV1 ovarian. The molecule further showed a TGI in the test with SR leukemia above 100 µM.

`Cc1nc2c(cc1C(=O)NN)c(=O)n(C)c(=O)n2C`: the TGI with K-562 leukemia, in the test with RPMI-8226 leukemia, with SF-295 CNS, with MDA-MB-231 breast, in the test with UACC-62 melanoma and with IGROV1 ovarian was above 100 µM throughout.

On to `C[C@]12CC[C@H]3[C@@H](CCC4=CC(=O)C=C[C@@]43O)[C@@H]1CCC2=O`, for which the TGI in the test with K-562 leukemia, in the test on RPMI-8226 leukemia, in the test on SF-295 CNS, with MDA-MB-231 breast, in the test on UACC-62 melanoma and in the test on IGROV1 ovarian was above 100 µM in each case. The molecule further showed a TGI in the test on SR leukemia above 100 µM.

`CCOC(=O)c1ccc(-c2cc(C)[nH]n2)[nH]1`: the TGI with RPMI-8226 leukemia, in the test with MALME-3M melanoma, in the test on NCI-H522 lung, with SF-295 CNS, in the test on MDA-MB-231 breast and in the test on UACC-62 melanoma was above 100 µM throughout.

With `O=S(=O)(c1cc(Cl)ccc1Cl)N1CCN(S(=O)(=O)c2cc(Cl)ccc2Cl)CC1`, the TGI in the test with K-562 leukemia was above 100 µM; in the test with MALME-3M melanoma it was above 100 µM; in the test on NCI-H522 lung, above 100 µM; with SF-295 CNS, above 100 µM; in the test with MDA-MB-231 breast it was above 100 µM; in the test on HS 578T breast, 83.4 µM. The TGI is 2.48 µM in the test with UACC-62 melanoma and above 100 µM with IGROV1 ovarian.

As to `Cc1cc(S(=O)(=O)Nc2nc3ccsc3c(=O)n2N)c(S)cc1Cl`, the TGI in the test on K-562 leukemia, in the test with RPMI-8226 leukemia, with MALME-3M melanoma, with NCI-H522 lung, with SF-295 CNS and with MDA-MB-231 breast was above 100 µM throughout. The TGI with UACC-62 melanoma and with IGROV1 ovarian was above 100 µM throughout.

Take `CO/C(=N\N=C\c1ccc(Cl)cc1)c1ccncc1`: the TGI with K-562 leukemia, in the test with RPMI-8226 leukemia, in the test on MALME-3M melanoma, in the test on NCI-H522 lung, in the test on SF-295 CNS and in the test on UACC-62 melanoma was above 100 µM throughout. The TGI with IGROV1 ovarian and in the test on SR leukemia was above 100 µM each time.

For the molecule `O=[N+]([O-])c1ccc2c(c1)nc(Cc1ccccc1)n2C[C@@H]1CCCN2CCCCC12` (stereo partly specified), the TGI in the test on K-562 leukemia is 49.1 µM; in the test with MALME-3M melanoma it was 29.2 µM; with NCI-H522 lung it was 80 µM; in the test with SF-295 CNS, 37.9 µM; in the test on MDA-MB-231 breast, 95.1 µM; in the test with HS 578T breast, above 100 µM. Moreover, the TGI with UACC-62 melanoma is 36.3 µM; in the test on IGROV1 ovarian, above 100 µM.

Regarding `CCOC(=O)C1=CN=C2C(=O)N(c3ccccc3)N(C)C2(C)C1=N` (stereo unspecified), the TGI in the test with K-562 leukemia, with RPMI-8226 leukemia, in the test with MALME-3M melanoma, in the test with NCI-H522 lung, in the test with SF-295 CNS and in the test on MDA-MB-231 breast was above 100 µM throughout. Besides, the TGI in the test with UACC-62 melanoma and in the test with IGROV1 ovarian was above 100 µM throughout.

In the case of `CC1(C)CCC[C@]2(C)[C@@H]1CC[C@@]13O[C@@H]1C1=C(CO)C(=O)O[C@]14O[C@@H]4[C@@H]23`, the TGI with K-562 leukemia is above 55.2 µM; in the test on RPMI-8226 leukemia it was above 100 µM; in the test with MALME-3M melanoma, 32.4 µM; in the test on NCI-H522 lung, 22 µM; in the test on SF-295 CNS it was 32.3 µM; with MDA-MB-231 breast, 35.9 µM. The values for the TGI with UACC-62 melanoma, in the test on IGROV1 ovarian and in the test with SR leukemia were 37.7 µM, 27.3 µM and above 100 µM, respectively.

On to `Cc1c(CNc2ccc(Cl)c(C(=O)NC(CC(=O)O)C(=O)O)c2)ccc2nc(N)nc(N)c12` (stereo unspecified), for which the TGI was above 1000 µM with K-562 leukemia; 692 µM with MALME-3M melanoma; 682 µM in the test with NCI-H522 lung; above 1000 µM in the test on SF-295 CNS; above 1000 µM in the test with MDA-MB-231 breast; above 1000 µM in the test with HS 578T breast. The figures for the TGI with UACC-62 melanoma and in the test on IGROV1 ovarian were above 1000 µM and 232 µM, respectively. For the same molecule, the GI50 is 211 µM in the test on NCI-H522 lung, above 1000 µM with MDA-MB-231 breast and 50.4 µM with IGROV1 ovarian.

Take `CN(C)N=Nc1ccc([N+](=O)[O-])cc1C(N)=O`: the TGI in the test on K-562 leukemia, with RPMI-8226 leukemia, in the test with MALME-3M melanoma, with NCI-H522 lung, in the test with SF-295 CNS and in the test with UACC-62 melanoma was above 100 µM in each case. In the test with IGROV1 ovarian, this molecule yielded a TGI above 100 µM.

Take `CCNc1nc(N)c(C(=O)c2ccc(Cl)cc2)s1`: the TGI in the test with K-562 leukemia was above 100 µM; in the test on RPMI-8226 leukemia, above 100 µM; in the test on MALME-3M melanoma, above 100 µM; in the test with MDA-MB-231 breast, above 100 µM; in the test with HS 578T breast, 36.9 µM; in the test on UACC-62 melanoma, above 100 µM. In the test on IGROV1 ovarian, this molecule showed a TGI above 100 µM.

On to `CN(C)CCCn1c(Cc2ccccc2)nc2cc(C(F)(F)F)ccc21`, for which the TGI was 47 µM in the test with K-562 leukemia; 35.5 µM in the test with MALME-3M melanoma; 48.3 µM with NCI-H522 lung; 33.5 µM in the test with SF-295 CNS; 73.3 µM in the test on MDA-MB-231 breast; above 100 µM with HS 578T breast. The values for the TGI in the test with UACC-62 melanoma and in the test on IGROV1 ovarian were 34.4 µM and above 100 µM, respectively.
